Test results from ChEMBL document CHEMBL5442219.

What was measured:
Settings in all cases: Compound concentration 10 µM
[1] = molecular target: T1, Muscarinic acetylcholine receptor M5 (Homo sapiens) (UniProt P08912)
T1 sequence (whole entry): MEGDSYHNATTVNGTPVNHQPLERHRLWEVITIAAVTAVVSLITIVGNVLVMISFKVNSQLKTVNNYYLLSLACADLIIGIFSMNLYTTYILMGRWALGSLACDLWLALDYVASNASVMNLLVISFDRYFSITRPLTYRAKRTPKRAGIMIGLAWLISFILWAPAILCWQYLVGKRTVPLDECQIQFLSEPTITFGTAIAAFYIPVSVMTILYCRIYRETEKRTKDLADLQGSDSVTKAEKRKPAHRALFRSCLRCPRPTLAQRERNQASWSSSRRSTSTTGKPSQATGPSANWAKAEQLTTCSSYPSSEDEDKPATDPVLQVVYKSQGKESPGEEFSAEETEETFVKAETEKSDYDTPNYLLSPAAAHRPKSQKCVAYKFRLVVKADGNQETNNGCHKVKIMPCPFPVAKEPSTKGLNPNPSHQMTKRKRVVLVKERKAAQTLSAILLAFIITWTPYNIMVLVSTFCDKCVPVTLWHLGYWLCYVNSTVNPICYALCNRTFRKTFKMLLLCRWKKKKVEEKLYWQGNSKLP
Description: PDSP Primary Binding target: CHRM5 - Compounds are tested at 10 uM concentration, plate are incubated at room temperature in the dark for 90 minutes. Reaction are stopped by vacuum filtration onto 0.3% polyethyleneimine soaked filter mats using Filtermate harvester. Scintilation cocktail is then melted onto microwave-dried filters on a hot plate and the radio activity is counted in Microbia counter.

[2] = molecular target: T2, Muscarinic acetylcholine receptor M2 (Homo sapiens) (UniProt P08172)
T2 sequence (whole entry): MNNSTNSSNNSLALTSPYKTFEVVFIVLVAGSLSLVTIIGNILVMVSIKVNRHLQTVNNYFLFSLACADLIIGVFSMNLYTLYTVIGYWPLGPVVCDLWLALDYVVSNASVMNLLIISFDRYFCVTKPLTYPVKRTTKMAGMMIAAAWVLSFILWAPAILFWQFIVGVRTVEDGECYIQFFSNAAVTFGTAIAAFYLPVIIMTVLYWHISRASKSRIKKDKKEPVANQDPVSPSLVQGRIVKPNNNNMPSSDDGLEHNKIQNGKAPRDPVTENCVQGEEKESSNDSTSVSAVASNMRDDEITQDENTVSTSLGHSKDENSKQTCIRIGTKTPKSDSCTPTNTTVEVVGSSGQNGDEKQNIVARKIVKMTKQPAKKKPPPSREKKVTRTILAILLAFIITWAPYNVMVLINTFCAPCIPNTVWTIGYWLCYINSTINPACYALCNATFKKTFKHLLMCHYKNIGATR
Description: PDSP Primary Binding target: CHRM2 - Compounds are tested at 10 uM concentration, plate are incubated at room temperature in the dark for 90 minutes. Reaction are stopped by vacuum filtration onto 0.3% polyethyleneimine soaked filter mats using Filtermate harvester. Scintilation cocktail is then melted onto microwave-dried filters on a hot plate and the radio activity is counted in Microbia counter.

[3] = molecular target: T3, D(4) dopamine receptor (Homo sapiens) (UniProt P21917)
T3 sequence (whole entry): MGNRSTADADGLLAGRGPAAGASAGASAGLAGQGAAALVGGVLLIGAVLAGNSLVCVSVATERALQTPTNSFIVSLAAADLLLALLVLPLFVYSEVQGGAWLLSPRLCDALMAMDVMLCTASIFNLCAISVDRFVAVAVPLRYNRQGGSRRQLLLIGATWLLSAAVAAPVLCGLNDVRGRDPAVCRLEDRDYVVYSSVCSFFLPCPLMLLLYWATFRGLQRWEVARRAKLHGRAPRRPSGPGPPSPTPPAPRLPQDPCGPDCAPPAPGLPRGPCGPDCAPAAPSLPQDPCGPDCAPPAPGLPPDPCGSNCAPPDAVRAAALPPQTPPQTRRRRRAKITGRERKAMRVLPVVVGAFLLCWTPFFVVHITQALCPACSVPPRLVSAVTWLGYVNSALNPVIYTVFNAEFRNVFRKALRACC
Description: PDSP Primary Binding target: DRD4 - Compounds are tested at 10 uM concentration, plate are incubated at room temperature in the dark for 90 minutes. Reaction are stopped by vacuum filtration onto 0.3% polyethyleneimine soaked filter mats using Filtermate harvester. Scintilation cocktail is then melted onto microwave-dried filters on a hot plate and the radio activity is counted in Microbia counter.

[4] = molecular target: T4, Alpha-1D adrenergic receptor (Homo sapiens) (UniProt P25100)
T4 sequence (whole entry): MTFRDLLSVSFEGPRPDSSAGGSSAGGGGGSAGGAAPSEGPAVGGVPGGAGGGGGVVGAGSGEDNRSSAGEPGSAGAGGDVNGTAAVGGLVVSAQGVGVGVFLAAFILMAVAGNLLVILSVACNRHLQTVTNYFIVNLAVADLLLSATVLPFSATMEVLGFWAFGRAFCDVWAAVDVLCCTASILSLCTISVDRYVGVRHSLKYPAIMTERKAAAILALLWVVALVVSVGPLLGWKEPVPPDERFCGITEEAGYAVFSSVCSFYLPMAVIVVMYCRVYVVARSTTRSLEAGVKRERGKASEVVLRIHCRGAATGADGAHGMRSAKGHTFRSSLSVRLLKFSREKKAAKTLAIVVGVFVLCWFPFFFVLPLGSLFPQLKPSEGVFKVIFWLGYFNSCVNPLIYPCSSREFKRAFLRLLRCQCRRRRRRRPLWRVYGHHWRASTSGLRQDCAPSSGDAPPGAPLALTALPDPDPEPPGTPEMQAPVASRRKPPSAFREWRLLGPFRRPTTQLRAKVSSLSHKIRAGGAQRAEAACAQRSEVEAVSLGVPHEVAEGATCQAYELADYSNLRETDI
Description: PDSP Primary Binding target: ADRA1D - Compounds are tested at 10 uM concentration, plate are incubated at room temperature in the dark for 90 minutes. Reaction are stopped by vacuum filtration onto 0.3% polyethyleneimine soaked filter mats using Filtermate harvester. Scintilation cocktail is then melted onto microwave-dried filters on a hot plate and the radio activity is counted in Microbia counter.

[5] = molecular target: Sigma non-opioid intracellular receptor 1 (Homo sapiens) (UniProt Q99720)
Sequence of Sigma non-opioid intracellular receptor 1 (Homo sapiens) (Q99720 whole entry): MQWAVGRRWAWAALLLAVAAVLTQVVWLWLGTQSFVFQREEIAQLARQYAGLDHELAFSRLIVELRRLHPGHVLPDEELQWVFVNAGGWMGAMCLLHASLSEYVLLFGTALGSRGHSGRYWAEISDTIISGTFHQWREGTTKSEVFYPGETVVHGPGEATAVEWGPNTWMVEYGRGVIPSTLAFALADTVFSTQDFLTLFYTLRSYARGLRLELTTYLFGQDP
Description: PDSP Primary Binding target: SIGMAR1 - Compounds are tested at 10 uM concentration, plate are incubated at room temperature in the dark for 90 minutes. Reaction are stopped by vacuum filtration onto 0.3% polyethyleneimine soaked filter mats using Filtermate harvester. Scintilation cocktail is then melted onto microwave-dried filters on a hot plate and the radio activity is counted in Microbia counter.

[6] = molecular target: 5-hydroxytryptamine receptor 2B (Homo sapiens) (UniProt P41595)
Sequence of 5-hydroxytryptamine receptor 2B (Homo sapiens) (P41595 whole entry): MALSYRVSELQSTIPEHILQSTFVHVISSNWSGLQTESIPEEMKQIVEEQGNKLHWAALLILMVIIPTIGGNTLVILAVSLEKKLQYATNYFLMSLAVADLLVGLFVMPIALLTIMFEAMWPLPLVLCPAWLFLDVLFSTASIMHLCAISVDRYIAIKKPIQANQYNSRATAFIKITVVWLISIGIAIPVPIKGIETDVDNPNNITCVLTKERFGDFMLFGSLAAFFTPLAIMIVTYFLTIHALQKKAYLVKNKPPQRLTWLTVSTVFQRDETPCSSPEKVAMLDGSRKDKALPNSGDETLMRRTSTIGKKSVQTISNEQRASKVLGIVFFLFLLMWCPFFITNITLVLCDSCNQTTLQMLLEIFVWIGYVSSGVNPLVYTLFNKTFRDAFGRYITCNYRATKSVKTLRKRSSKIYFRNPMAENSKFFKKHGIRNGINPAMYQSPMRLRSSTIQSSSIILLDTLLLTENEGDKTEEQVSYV
Description: PDSP Primary Binding target: HTR2B - Compounds are tested at 10 uM concentration, plate are incubated at room temperature in the dark for 90 minutes. Reaction are stopped by vacuum filtration onto 0.3% polyethyleneimine soaked filter mats using Filtermate harvester. Scintilation cocktail is then melted onto microwave-dried filters on a hot plate and the radio activity is counted in Microbia counter.

[7] = molecular target: Delta-type opioid receptor (Homo sapiens) (UniProt P41143)
Sequence of Delta-type opioid receptor (Homo sapiens) (P41143 whole entry): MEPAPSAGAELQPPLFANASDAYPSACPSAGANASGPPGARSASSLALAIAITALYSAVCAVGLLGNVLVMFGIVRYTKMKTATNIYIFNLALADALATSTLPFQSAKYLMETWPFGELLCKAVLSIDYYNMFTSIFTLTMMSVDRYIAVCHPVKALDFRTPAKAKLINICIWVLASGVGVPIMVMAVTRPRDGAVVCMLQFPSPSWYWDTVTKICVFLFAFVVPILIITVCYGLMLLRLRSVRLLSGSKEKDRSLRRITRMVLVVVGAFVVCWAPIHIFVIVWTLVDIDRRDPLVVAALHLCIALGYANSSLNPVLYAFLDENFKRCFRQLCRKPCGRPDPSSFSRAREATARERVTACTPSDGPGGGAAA
Description: PDSP Primary Binding target: OPRD1 - Compounds are tested at 10 uM concentration, plate are incubated at room temperature in the dark for 90 minutes. Reaction are stopped by vacuum filtration onto 0.3% polyethyleneimine soaked filter mats using Filtermate harvester. Scintilation cocktail is then melted onto microwave-dried filters on a hot plate and the radio activity is counted in Microbia counter.

[8] = molecular target: Sigma intracellular receptor 2 (Homo sapiens) (UniProt Q5BJF2)
Sequence of Sigma intracellular receptor 2 (Homo sapiens) (Q5BJF2 whole entry): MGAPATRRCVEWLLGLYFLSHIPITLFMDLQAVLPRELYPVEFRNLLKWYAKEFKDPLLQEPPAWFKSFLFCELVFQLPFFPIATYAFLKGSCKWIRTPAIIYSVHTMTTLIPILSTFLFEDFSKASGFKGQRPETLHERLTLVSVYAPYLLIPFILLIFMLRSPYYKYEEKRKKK
Description: PDSP Primary Binding target: TMEM97 - Compounds are tested at 10 uM concentration, plate are incubated at room temperature in the dark for 90 minutes. Reaction are stopped by vacuum filtration onto 0.3% polyethyleneimine soaked filter mats using Filtermate harvester. Scintilation cocktail is then melted onto microwave-dried filters on a hot plate and the radio activity is counted in Microbia counter.

[9] = molecular target: T5, Muscarinic acetylcholine receptor M1 (Homo sapiens) (UniProt P11229)
T5 sequence (whole entry): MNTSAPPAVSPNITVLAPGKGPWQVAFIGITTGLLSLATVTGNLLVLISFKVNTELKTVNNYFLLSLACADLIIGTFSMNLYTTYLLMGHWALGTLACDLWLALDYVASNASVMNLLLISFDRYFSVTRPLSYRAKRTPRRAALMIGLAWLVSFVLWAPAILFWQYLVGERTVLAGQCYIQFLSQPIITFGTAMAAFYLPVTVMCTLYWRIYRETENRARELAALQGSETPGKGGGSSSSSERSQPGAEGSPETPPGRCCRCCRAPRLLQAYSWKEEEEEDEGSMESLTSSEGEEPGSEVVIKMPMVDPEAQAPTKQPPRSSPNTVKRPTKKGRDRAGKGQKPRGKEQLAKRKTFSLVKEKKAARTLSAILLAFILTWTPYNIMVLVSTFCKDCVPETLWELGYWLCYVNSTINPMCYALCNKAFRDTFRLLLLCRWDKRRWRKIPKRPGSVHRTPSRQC
Description: PDSP Primary Binding target: CHRM1 - Compounds are tested at 10 uM concentration, plate are incubated at room temperature in the dark for 90 minutes. Reaction are stopped by vacuum filtration onto 0.3% polyethyleneimine soaked filter mats using Filtermate harvester. Scintilation cocktail is then melted onto microwave-dried filters on a hot plate and the radio activity is counted in Microbia counter.

| SMILES | inhibition [1] | inhibition [2] | inhibition [3] | inhibition [4] | inhibition [5] | inhibition [6] | inhibition [7] | inhibition [8] | inhibition [9] |
| --- | --- | --- | --- | --- | --- | --- | --- | --- | --- |
| NC(=O)[C@@H]1CCCN1C(=O)[C@H](Cc1c[nH]cn1)NC(=O)[C@@H]1CCC(=O)N1 | 5.07% | -6.24% | 18.4% | -8.73% | 34.1% | 18.6% | 1.37% | 35% | -3.59% |
| CNc1nc(NCc2ccc(NS(C)(=O)=O)cc2Cl)cc(-c2ccccn2)n1 | 6.84% | -5.61% | 2.1% | 12.4% | 87.2% | 66.5% | -8.14% | 39.1% | 9.22% |
| CN1CCN(c2ccc(Nc3c4ccccc4nc4ccccc34)cc2)CC1 | 42.3% | 63.8% | 13.3% | 59.2% | 86.4% | 36.1% | 5.07% | 70.8% | 51.2% |
| Cc1cn2cc(CC(=O)N3CCC4(CC3)CN(Cc3ccc(-n5nccn5)cc3Cl)C4)nc2s1 | 71.8% | 68.5% | 50.6% | 13.3% | 52.1% | 19.4% | 18.8% | 43.3% | 51.1% |
| COc1ccc(NC(=O)c2ccc(-c3ccc(-c4noc(C)n4)cc3C)cc2)cc1OCCN(C)C | 37.9% | 80.8% | 45.4% | 38% | 70% | 90.6% | 0.83% | 84.2% | 50.7% |
| Cc1c(P(=S)(c2ccccc2)c2ccccc2)n2ccccc2[n+]1C/C=C/c1ccccc1 | 89% | 57.4% | 25.8% | 8.81% | 67.2% | 8.18% | 36.7% | 88% | 88.2% |
| COc1ccc(CNC(=O)c2cc(-c3cncc(Cl)c3)cnc2-c2ccccn2)nc1OC | 0.79% | 10.6% | -1.86% | -7.71% | -2.32% | -6.96% | -4.67% | 16.4% | -7.31% |
| Cc1cc(NC(=O)NCCN2CCC(O)(Cc3ccccc3)CC2)c2ccccc2n1 | 44% | 16.1% | 21.1% | 16.2% | 56.9% | 62.2% | 15.6% | 86% | 13.7% |
| C[N+]1(C)[C@@H]2C[C@@H](OC(=O)C(O)(c3cccs3)c3cccs3)C[C@H]1[C@@H]1O[C@@H]12 | 97.4% | 94.2% | 20% | 13.1% | 32.7% | 11.5% | -1.59% | 66.5% | 94.5% |
